Assay results reported in ChEMBL document CHEMBL1177803, “In vitro antituberculosis activities of the constituents isolated from Haloxylon salicornicum” (2010).
In brackets after ≈: the same amount, converted by molar mass. Activity calls are given as the source filed them. No cut-off for these calls is given here.

Assays:
[1] = tested on: Mycobacterium tuberculosis; assay: Antituberculosis activity against Mycobacterium tuberculosis H37Rv ATCC 27294 after 2 weeks by microbroth dilution method; type: functional; settings: H37Rv ATCC 27294, 336 h
[2] = tested on: Mycobacterium tuberculosis; assay: Antituberculosis activity against Mycobacterium tuberculosis H37Rv ATCC 27294 in stationary phase culture at pH 5.8 up to 200 ug/ml after 3 days followed by washout from day 4 to week 4 by microbroth dilution method; type: functional, organism-based

## OCCCCCCCCCCCCCCCCCCCCC1CCCCC1
[1]
  MIC: 100 µg/mL (≈ 263 µM)
[2]
  Activity: inactive

## OCCCCCCCCCCCCCCCCCCCCCCC1CCCCC1
[1]
  MIC: 100 µg/mL (≈ 245 µM)
[2]
  Activity: inactive

## CCCCCCCCCCCCCCCC(=O)O[C@H]1CC[C@]2(C)[C@H]3CC=C4[C@H]5CC(C)(C)CC[C@]5(C)CC[C@@]4(C)[C@]3(C)CC[C@H]2C1(C)C
[1]
  MIC: 100 µg/mL (≈ 150 µM)
[2]
  Activity: inactive

## CC[C@H](/C=C/[C@@H](C)[C@H]1CC[C@H]2[C@@H]3CCC4=C[C@@H](O[C@@H]5O[C@H](CO)[C@@H](O)[C@H](O)[C@H]5O)CC[C@]4(C)[C@H]3CC[C@]12C)C(C)C
[1]
  MIC: 100 µg/mL (≈ 174 µM)
[2]
  Activity: inactive

## CC[C@H](/C=C/[C@@H](C)[C@H]1CC[C@H]2[C@@H]3CCC4=C[C@@H](O[C@@H]5O[C@@H](C)[C@H](O)[C@@H](O)[C@H]5O)CC[C@]4(C)[C@H]3CC[C@]12C)C(C)C
[1]
  MIC: 50 µg/mL (≈ 89.5 µM)
[2]
  Activity: inactive

## CCC(CC[C@@H](C)[C@H]1CC[C@H]2[C@@H]3CC=C4C=CCC[C@]4(C)[C@H]3CC[C@]12C)C(C)C (some centres not stated)
[1]
  MIC: 100 µg/mL (≈ 252 µM)
[2]
  Activity: inactive

## C[C@H]1[C@H](C)CC[C@]2(C)CC[C@]3(C)C(=CC[C@@H]4[C@@]5(C)CCC[C@H](C)[C@@H]5CC[C@]43C)[C@H]12
[1]
  MIC: 100 µg/mL (≈ 252 µM)
[2]
  Activity: inactive

## CCCCC(O)CCCCCCCCCCCCCCCCCCCC(=O)CCC (configuration not stated)
[1]
  MIC: 100 µg/mL (≈ 235 µM)
[2]
  Activity: inactive

## CC(C)[C@@H](C)/C=C/[C@@H](C)[C@H]1CC[C@@H]2[C@]1(C)CC=C1[C@]23C=C[C@]2(C[C@@H](O)CC[C@]12C)OO3
[1]
  MIC: 100 µg/mL (≈ 234 µM)
[2]
  Activity: inactive

## COc1c(O)cc2ccc(=O)oc2c1OC
[1]
  MIC: 100 µg/mL (≈ 450 µM)
[2]
  Activity: inactive

## CC(C)[C@@H](C)/C=C/[C@@H](C)[C@H]1CC[C@@H]2[C@]1(C)CC[C@H]1[C@]23C=C[C@]2(C[C@@H](O)CC[C@]12C)OO3 [ERGOSTEROL PEROXIDE]
[1]
  MIC: 100 µg/mL (≈ 233 µM)
[2]
  Activity: inactive

## O=C(/C=C\C=C/CCCCCCCCCCCCCCCCCO)N1CCCCC1 [HALOXYLINE A]
[1]
  MIC: 100 µg/mL (≈ 238 µM)
[2]
  Activity: inactive

## O=C(/C=C\C=C/CCCCCCCCCCCCCCCCCO)N1CCC[C@@H](O)C1 [HALOXYLINE B]
[1]
  MIC: 50 µg/mL (≈ 115 µM)
[2]
  Activity: inactive

## NNC(=O)c1ccncc1 [ISONIAZID]
[1]
  MIC: 0.02 µg/mL (≈ 0.146 µM)
[2]
  Activity: inactive

## C=C(C)[C@@H]1CC[C@]2(C)CC[C@]3(C)[C@H](CC[C@@H]4[C@@]5(C)CC[C@H](OC(C)=O)C(C)(C)[C@@H]5CC[C@]43C)[C@@H]12 [LUPENYL ACETATE]
[1]
  MIC: 100 µg/mL
[2]
  Activity: inactive

## C=C(C)[C@@H]1CC[C@]2(C)CC[C@]3(C)[C@H](CC[C@@H]4[C@@]5(C)CC[C@H](O)C(C)(C)[C@@H]5CC[C@]43C)[C@@H]12 [LUPEOL]
[1]
  MIC: 100 µg/mL (≈ 234 µM)
[2]
  Activity: inactive

## CC[C@H](/C=C/[C@@H](C)[C@H]1CC[C@H]2[C@@H]3CC=C4C[C@@H](O[C@@H]5O[C@H](CO)[C@@H](O)[C@H](O)[C@H]5O)CC[C@]4(C)[C@H]3CC[C@]12C)C(C)C [STIGMASTEROL GLUCOSIDE]
[1]
  MIC: 50 µg/mL (≈ 87 µM)
[2]
  Activity: inactive

## CC[C@H](/C=C/[C@@H](C)[C@H]1CC[C@H]2[C@@H]3CC=C4C[C@@H](O)CC[C@]4(C)[C@H]3CC[C@]12C)C(C)C [STIGMASTEROL]
[1]
  MIC: 100 µg/mL (≈ 242 µM)
[2]
  Activity: inactive

## C[C@H]1[C@H](C)CC[C@]2(C(=O)O)CC[C@]3(C)C(=CC[C@@H]4[C@@]5(C)CC[C@H](O)C(C)(C)[C@@H]5CC[C@]43C)[C@H]12 [URSOLIC ACID]
[1]
  MIC: 100 µg/mL (≈ 219 µM)
[2]
  Activity: inactive

## CC(=O)O[C@H]1CC[C@]2(C)[C@H]3CC=C4[C@@H]5CC(C)(C)CC[C@]5(C)CC[C@@]4(C)[C@]3(C)CC[C@H]2C1(C)C [beta-AMYRIN ACETATE]
[1]
  MIC: 100 µg/mL
[2]
  Activity: inactive

## CC1(C)CC[C@]2(C)CC[C@]3(C)C(=CC[C@@H]4[C@@]5(C)CC[C@H](O)C(C)(C)[C@@H]5CC[C@]43C)[C@@H]2C1 [beta-AMYRIN]
[1]
  MIC: 100 µg/mL (≈ 234 µM)
[2]
  Activity: inactive
